Common to all, as to type: functional, cell-free
Assay [1] is filed under the species Oryctolagus cuniculus. The assay is described as follows: Anticoagulant activity in New Zealand White rabbit plasma assessed as prolongation of activated partial thromboplastin time at 1 mM after 1 min.
For assay [2], the species on record is Oryctolagus cuniculus. In words: Anticoagulant activity in New Zealand White rabbit plasma assessed as prolongation of thrombin time at 1 mM incubated for 3 mins followed by thrombin addition.
The species entered for assay [3] is Oryctolagus cuniculus. In words: Anticoagulant activity in New Zealand White rabbit plasma assessed as decrease in fibrinogen level at 1 mM after 3 mins.

Calls of active or inactive are those of the source. The calls are words filed in the database; no cut-off is given here.

On to `CCCCC(=O)[C@]12CC[C@H](C=C1C(=O)OC)[C@@H](CCC)[C@@]21OC(=O)C2=C[C@H]3CC[C@]21OO3`, for which the result in the assay filed under Oryctolagus cuniculus [1], in the assay listed under Oryctolagus cuniculus [2] and in the assay listed under Oryctolagus cuniculus [3] was Active.

In the case of `CCC/C=C1\OC(=O)C2=C1CC[C@@H]1[C@@H]3CCC4=C(C(=O)OC45[C@H](CCC)[C@@H](CCC)[C@@]54OC(=O)C5=C4CCC=C5)[C@@H]3[C@H]21` (some centres undefined), the outcome in the assay listed under Oryctolagus cuniculus [3] was Active.

Source of the values: ChEMBL document CHEMBL3861976, “Phthalide Derivatives with Anticoagulation Activities from Angelica sinensis” (J Nat Prod, 2016).
